Reference: patent US6455558B1, “Biocide composition and use” (Avecia Limited, priority 1998, dated 2002)
Where “and” joins values, the source holds several entries; their conditions need not be identical. Identical values can stand only once.

Tested on: mixed inoculum of Aureobasidium pullulans, Fusarium solani, Penicillium funicularum, Scopulariopsis brevicaulis and Streptoverticillium waksmanii
Experiment: Soil burial test of plasticised PVC strips containing biocide: weight loss after 20 weeks

Compound: CCCCCCCCn1sccc1=O [OIT, N-n-octyl isothiazolin-3-one]
- Actual % Weight Loss: 3.47% and 4.516% and 4.992% and 5.465%

Compound: Zinc Omadine [ZO]
- Actual % Weight Loss: 4.011% and 3.557% and 3.318% and 2.179%
